Measured values reported in US20200016188A1, “MODIFICATION OF THE PH AND OTHER PHYSICAL PROPERTIES OF NICOTINAMIDE ADENINE DINUCLEOTIDE (OXIDIZED FORM) TO ALLOW FOR ENHANCED STABILITY AND MULTIPLE DELIVERY SYSTEMS” (priority 2018, published 2020).
Entries after “also recorded” stand apart in the source; their conditions may differ. Like-named read-outs stand apart in the source and are kept apart here.

Experiments:
[1] = pH testing of test substances (pH strips, probe and meter); type: physicochemical
Description: PH testing was done by using both pH testing strips and a probe and meter for each test substance to determine its pH. Each test substance was dissolved in 150 ml distilled water then tested for its pH value. Where the test substance could not be tested because it was not water soluble, an art-recognized pH was used.
PH testing was done by using both ph testing strips and a probe and meter for each test substance to determine its pH. Each test substance was dissolved in 150 ml distilled water then tested for its pH value.

[2] = not tested, cited from earlier work; for (pH): Table 6, too viscous
[3] = Two-week stability of compressed lozenge of NAD+ with a test substance, HPLC UV; settings: for Observation when the composition was made: NAD+ with test substance, HPLC data could not be obtained
Description: Preparations of nicotinamide adenine dinucleotide (oxidized form) were compounded. A compressed lozenge was created including 100 mg nicotinamide adenine dinucleotide (oxidized form) and 100 mg of a test substance. The powders were compressed in a tablet mold and released. Each test tablet was then placed in a white 75cc HDPE container that was sealed and removed from UV light for two weeks at room temperature.
After a two week period, the compositions were tested by performing an HPLC UV.

[4] = cited from earlier work
[5] = anhydrous NAD+ with test substance, two weeks, HPLC UV versus NAD+ control
[6] = Table 5, test substance dissolved in 150 ml distilled water

## CC(=O)Oc1c(C)c(C)c2c(c1C)CCC(C)(CCC[C@H](C)CCC[C@H](C)CCCC(C)C)O2 (some centres unmarked) [Tocopherol acetates, Tocopherol acetate]
[1]; summary of Table 6
  (pH) Value: neutral
[2]
  (pH): (pH) neutral

## O=C([O-])O.[K+] [Potassium Bicarbonate K2CO2, Potassium bicarbonate]
[3]; [5]
  Degradation of NAD+ when formulated with the test substance by itself (words): cause degradation of the NAD+

## OC[C@@H](O)[C@@H](O)[C@H](O)[C@@H](O)CO [70% Sorbitol, Sorbitol]
[1]; summary of Table 6
  (pH) Value: neutral
[2]
  (pH): (pH) neutral

## CCCCCCCCCCCCCCCC(=O)OC[C@H](O)[C@H]1OC(=O)C(O)=C1O [Ascorbyl palmitate]
[2]; Table 5, not water soluble, art-recognized pH
  pH range: (pH) range 6.8-7.2

## OC[C@@H](O)[C@@H](O)CO [Erythitol, Erythritol]
[1]; [6]
  (pH) Value: 6.3

## Polysorbate 80
[1]; summary of Table 6
  (pH) Value: neutral
[2]
  (pH): (pH) neutral

## NC(=O)c1ccc[n+]([C@@H]2O[C@H](COP(=O)([O-])OP(=O)(O)OC[C@H]3O[C@@H](n4cnc5c(N)ncnc54)[C@H](O)[C@@H]3O)[C@@H](O)[C@H]2O)c1 [NAD+, nicotinamide adenine dinucleotide (oxidized form)]
[4]; aqueous solutions between pH 2-6, stored at −70° C.
  Time NAD+ can be stable: up to 6 months
[4]; fairly neutral aqueous solutions at 0° C.
  Time NAD+ is stable: up to 2 weeks
[4]; neutral or slightly acidic solutions stored at zero degrees Fahrenheit
  Time the stability of NAD+ will last: up to 2 weeks

## O=C1O[C@H]([C@@H](O)CO)C([O-])=C1O.[Na+] [Sodium ascorbate]
[3]; [5]
  Degradation of NAD+ when formulated with the test substance by itself (words): positive results
[3]; anhydrous NAD+ with test substance, two weeks, HPLC UV versus NAD+ control, listed as sodium ascorbate
  Degradation of NAD+ when formulated with the test substance by itself (words): do not degrade NAD+

## Sodium hydroxide [Sodium Hydroxide NaOH]
[3]
  Observation when the composition was made: bubbled, liquefied, turned yellow, and created heat

## OC[C@@H](O)[C@@H](O)[C@H](O)[C@H](O)CO [Mannitol]
[1]; [6]
  (pH) Value: 6.7

## [Mg+2].[OH-].[OH-] [Magnesium Hydroxide Mg(OH)2, Magnesium hydroxide]
[3]; anhydrous NAD+ with test substance, two weeks, HPLC UV versus NAD+ control, listed as Mg(OH)2
  Degradation of NAD+ when formulated with the test substance by itself (words): deemed effective
[3]; anhydrous NAD+ with test substance, two weeks, HPLC UV versus NAD+ control, listed as magnesium hydroxide
  Degradation of NAD+ when formulated with the test substance by itself (words): do not degrade NAD+; also recorded: provided for stable compositions of NAD+

## OCc1ccccc1 [Benzyl alcohol]
[1]; Table 6, test substance in 150 ml distilled water
  (pH) Value: 6.9
[1]; summary of Table 6
  (pH) Value: neutral

## OCC(O)CO [Glycerin]
[1]; summary of Table 6
  (pH) Value: neutral
[2]
  (pH): (pH) neutral

## [K+].[OH-] [Potassium Hydroxide KOH, Potassium hydroxide]
[3]
  Observation when the composition was made: bubbled, liquefied, turned yellow, and created heat
[3]; [5]
  Degradation of NAD+ when formulated with the test substance by itself (words): cause degradation of the NAD+

## CCCCCCCCCCCCCCCCCC(=O)O [Stearic acid]
[3]
  Degradation of NAD+ when formulated with the test substance by itself (words): cause degradation of the NAD+

## Magnesium stearate
[3]; [5]
  Degradation of NAD+ when formulated with the test substance by itself (words): cause degradation of the NAD+

## [O]=[Mg] [Magnesium Oxide MgO, Magnesium oxide]
[1]; [6]
  (pH) Value: 9.1
[3]; [5]
  Degradation of NAD+ when formulated with the test substance by itself (words): cause degradation of the NAD+

## O=C([O-])[O-].[Mg+2] [Magnesium carbonate MgCO2, Magnesium carbonate]
[3]; [5]
  Degradation of NAD+ when formulated with the test substance by itself (words): did not degrade the NAD+; also recorded: little to no degradation; also recorded: do not degrade NAD+

## O=P([O-])([O-])O.[Ca+2] [Calcium Phosphate Dibasic, Calcium phosphate dibasic]
[1]; [6]
  (pH) Value: 8.5
[3]; [5]
  Degradation of NAD+ when formulated with the test substance by itself (words): did not degrade the NAD+; also recorded: little to no degradation; also recorded: do not degrade NAD+
[3]; anhydrous NAD+ with test substance, two weeks, HPLC UV versus NAD+ control, listed as CaHPO4
  Degradation of NAD+ when formulated with the test substance by itself (words): deemed effective

## [Cl-].[Na+] [Sodium Chloride NaCl, Sodium chloride]
[3]; [5]
  Degradation of NAD+ when formulated with the test substance by itself (words): positive results; also recorded: do not degrade NAD+

## OC[C@@H](O)[C@H](O)[C@@H](O)CO [Xylitol]
[1]; [6]
  (pH) Value: 6.5

## O=C([O-])O.[Na+] [Sodium Bicarbonate Na2CO2, Sodium bicarbonate]
[3]; [5]
  Degradation of NAD+ when formulated with the test substance by itself (words): showed degradation shortly after creation of the lozenge tablet; also recorded: cause degradation of the NAD+
